PubChem BioAssay AID256 (DTP/NCI, 2004)
Where “and” joins values, the source holds several entries; their conditions need not be identical. Equal values may be shown once. Toxic doses and inconclusive results are not listed.

Tested on: CD2F1 mice, L1210 leukemia ip, survival T/C
Experiment: NCI In Vivo Anticancer Drug Screen. Data for tumor model L1210 Leukemia (intraperitoneal) in CD2F1 (CDF1) mice
Details: endpoint: mean survival time, higher = longer survival
How it was run: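 Compound-dosed mice with transplantable tumor versus matched vehicle controls; endpoint ratio T/C reported.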

[1] = dose: 25.0 mg/kg/injection, schedule: Q01DX009 (ip), vehicle: saline
[2] = dose: 50.0 mg/kg/injection, schedule: Q01DX009 (ip), vehicle: saline
[3] = dose: 100.0 mg/kg/injection, schedule: Q01DX009 (ip), vehicle: saline
[4] = dose: 100.0 mg/kg/injection, schedule: Q01DX001 (ip), vehicle: saline with Tween-80
[5] = dose: 100.0 mg/kg/injection, schedule: Q01DX009 (ip), vehicle: saline with Tween-80
[6] = dose: 100.0 mg/kg/injection, schedule: Q04DX003 (ip), vehicle: saline with Tween-80
[7] = dose: 200.0 mg/kg/injection, schedule: Q01DX009 (ip), vehicle: saline with Tween-80
[8] = dose: 200.0 mg/kg/injection, schedule: Q04DX003 (ip), vehicle: saline with Tween-80
[9] = dose: 400.0 mg/kg/injection, schedule: Q01DX001 (ip), vehicle: saline with Tween-80
[10] = dose: 400.0 mg/kg/injection, schedule: Q01DX009 (ip), vehicle: saline with Tween-80
[11] = dose: 400.0 mg/kg/injection, schedule: Q04DX003 (ip), vehicle: saline with Tween-80
[12] = dose: 100.0 mg/kg/injection, schedule: Q04DX003 (ip), vehicle: saline

**Q.** What does the source list for `Nc1ccn([C@@H](C=O)O[C@@H](C=O)CO)c(=O)n1`?
**A.** T/C (dose: 6.25 mg/kg/injection, schedule: Q01DX009 (ip), vehicle: saline): 105 % of control; T/C (dose: 12.5 mg/kg/injection, schedule: Q01DX009 (ip), vehicle: saline): 114 % of control and 108 % of control; T/C [1]: 115 % of control and 117 % of control; T/C [2]: 121 % of control; T/C (dose: 70.0 mg/kg/injection, schedule: Q01DX001 (ip), vehicle: saline): 114 % of control; T/C [3]: 155 % of control and 162 % of control; T/C (dose: 140.0 mg/kg/injection, schedule: Q01DX001 (ip), vehicle: saline): 124 % of control; T/C (dose: 200.0 mg/kg/injection, schedule: Q01DX009 (ip), vehicle: saline): 211 % of control

**Q.** With `CC(=O)Nc1cccc(Cl)c1` as the compound, how does the T/C [4] read?
**A.** The T/C was 92 % of control.

**Q.** And the T/C [5]?
**A.** The T/C was 106 % of control.

**Q.** What about the T/C [6] of the same compound?
**A.** Its T/C is 98 % of control and 103 % of control.

**Q.** What about the T/C (dose: 200.0 mg/kg/injection, schedule: Q01DX001 (ip), vehicle: saline with Tween-80) of the same compound?
**A.** Its T/C is 100 % of control.

**Q.** And the T/C [7]?
**A.** The T/C was 96 % of control.

**Q.** What about the T/C [8] of the same compound?
**A.** Its T/C is 98 % of control and 116 % of control.

**Q.** What about the T/C [9] of the same compound?
**A.** Its T/C is 94 % of control.

**Q.** And the T/C [10]?
**A.** The T/C was 91 % of control.

**Q.** What about the T/C [11] of the same compound?
**A.** Its T/C is 94 % of control and 109 % of control.

**Q.** Which T/C [4] does the source give for `CCc1ccc(-n2cnc3c(=O)[nH]c(N)nc32)cc1` here?
**A.** Its T/C is 87 % of control.

**Q.** And the T/C [9]?
**A.** Its T/C is 93 % of control.

**Q.** Which results are given for `CC(=O)NC1C(OC(C)=O)OC(COC(c2ccccc2)(c2ccccc2)c2ccccc2)C(OS(C)(=O)=O)C1OC(C)=O` (configuration not stated)?
**A.** T/C (dose: 50.0 mg/kg/injection, schedule: Q04DX003 (ip), vehicle: saline with Tween-80): 95 % of control; T/C [6]: 103 % of control; T/C [8]: 101 % of control; T/C [11]: 89 % of control

**Q.** Which results are given for `Cc1ccc(S(=O)(=O)/C=C(\I)c2ccc([N+](=O)[O-])cc2)cc1`?
**A.** T/C (dose: 50.0 mg/kg/injection, schedule: Q04DX003 (ip), vehicle: saline): 96 % of control; T/C [12]: 87 % of control

**Q.** For `CC(=O)CC1C(CC(=O)O)C1(C)C` (configuration not stated), which T/C (dose: 100.0 mg/kg/injection, schedule: Q01DX001 (ip), vehicle: alcohol) is on record?
**A.** Its T/C is 100 % of control.

**Q.** And the T/C (dose: 200.0 mg/kg/injection, schedule: Q01DX001 (ip), vehicle: alcohol)?
**A.** The T/C was 102 % of control.

**Q.** And the T/C (dose: 400.0 mg/kg/injection, schedule: Q01DX001 (ip), vehicle: alcohol)?
**A.** The T/C was 102 % of control.

**Q.** How did the T/C (dose: 25.0 mg/kg/injection, schedule: Q01DX009 (ip), vehicle: saline with Tween-80) turn out when `CCCCCCCCCCCCNCCC#N` was run?
**A.** The T/C was 100 % of control.

**Q.** What about the T/C (dose: 50.0 mg/kg/injection, schedule: Q01DX009 (ip), vehicle: saline with Tween-80) of the same compound?
**A.** Its T/C is 101 % of control.

**Q.** And the T/C [5]?
**A.** Its T/C is 95 % of control.

**Q.** And the T/C [6]?
**A.** The T/C was 93 % of control.

**Q.** And the T/C [8]?
**A.** Its T/C is 87 % of control.

**Q.** For `C1=C[N]2c3c4c(ccc3=C1)=CC=C[N]4[Ga]2[c]1ccccc1`, which T/C [6] is on record?
**A.** Its T/C is 118 % of control.

**Q.** Which T/C (dose: 1.25 mg/kg/injection, schedule: Q01DX009 (ip), vehicle: saline with Tween-80) does the source give for `CC1(C)C2C3C=CC(C3)C2S1(=O)=O` (configuration not stated) here?
**A.** Its T/C is 100 % of control.

**Q.** And the T/C (dose: 1.25 mg/kg/injection, schedule: Q04DX003 (ip), vehicle: saline with Tween-80)?
**A.** The T/C was 110 % of control.

**Q.** And the T/C (dose: 2.5 mg/kg/injection, schedule: Q01DX001 (ip), vehicle: saline)?
**A.** Its T/C is 100 % of control.

**Q.** What about the T/C (dose: 2.5 mg/kg/injection, schedule: Q01DX009 (ip), vehicle: saline with Tween-80) of the same compound?
**A.** The T/C was 101 % of control.

**Q.** What about the T/C (dose: 2.5 mg/kg/injection, schedule: Q04DX003 (ip), vehicle: saline with Tween-80) of the same compound?
**A.** Its T/C is 100 % of control.

**Q.** What about the T/C (dose: 5.0 mg/kg/injection, schedule: Q01DX001 (ip), vehicle: saline) of the same compound?
**A.** Its T/C is 100 % of control.

**Q.** What about the T/C (dose: 5.0 mg/kg/injection, schedule: Q01DX009 (ip), vehicle: saline with Tween-80) of the same compound?
**A.** The T/C was 101 % of control.

**Q.** What about the T/C (dose: 5.0 mg/kg/injection, schedule: Q04DX003 (ip), vehicle: saline with Tween-80) of the same compound?
**A.** Its T/C is 107 % of control.

**Q.** How did the T/C [6] turn out when `COc1ccc(C(=O)CC(C(=O)O)c2ccc(OC)c(OC)c2)cc1OC` (configuration not stated) was run?
**A.** Its T/C is 98 % of control.

**Q.** And the T/C [8]?
**A.** Its T/C is 102 % of control.

**Q.** And the T/C [11]?
**A.** Its T/C is 91 % of control.

**Q.** Which results are given for `CCN(CC)C(=S)SC/C=C\CC(Cl)(Cl)Cl`?
**A.** T/C (dose: 75.0 mg/kg/injection, schedule: Q04DX003 (ip), vehicle: saline): 97 % of control; T/C (dose: 150.0 mg/kg/injection, schedule: Q04DX003 (ip), vehicle: saline): 101 % of control; T/C (dose: 300.0 mg/kg/injection, schedule: Q04DX003 (ip), vehicle: saline): 109 % of control

**Q.** How did the T/C [12] turn out when `O=[N+]([O-])c1ccc(N/N=C/c2cccc(CO)c2)c([N+](=O)[O-])c1` was run?
**A.** Its T/C is 94 % of control.

**Q.** And the T/C (dose: 200.0 mg/kg/injection, schedule: Q04DX003 (ip), vehicle: saline)?
**A.** The T/C was 88 % of control.

**Q.** What about the T/C (dose: 400.0 mg/kg/injection, schedule: Q04DX003 (ip), vehicle: saline) of the same compound?
**A.** Its T/C is 96 % of control.

**Q.** How did the T/C [1] turn out when `N=C(N)c1ccc(OCCOc2cccc(N)c2)cc1` was run?
**A.** The T/C was 100 % of control.

**Q.** And the T/C [2]?
**A.** Its T/C is 95 % of control.

**Q.** And the T/C [5]?
**A.** The T/C was 93 % of control.

**Q.** And the T/C [3]?
**A.** The T/C was 97 % of control.

**Q.** `O=[N+]([O-])c1cc(F)ccc1O` was tested. Which T/C [5] did it give?
**A.** Its T/C is 96 % of control.

**Q.** With `O=C(CCBr)NCc1ccccc1` as the compound, how does the T/C [5] read?
**A.** The T/C was 97 % of control.

**Q.** And the T/C [6]?
**A.** Its T/C is 92 % of control.

**Q.** And the T/C [7]?
**A.** Its T/C is 98 % of control.

**Q.** And the T/C [8]?
**A.** Its T/C is 98 % of control.

**Q.** What about the T/C [10] of the same compound?
**A.** The T/C was 97 % of control.

**Q.** What about the T/C [11] of the same compound?
**A.** The T/C was 95 % of control.
